Reference: ChEMBL document CHEMBL6103613 (J Med Chem, 2025)
In brackets after ≈: the same amount, converted by molar mass. Activity calls are given as the source filed them. The rule behind the calls is not given here. Positions of bridges follow the written chain, without caps; N, C: chain ends. Non-standard residues stand in square brackets, D forms with d. Residues, ends and D or L forms follow the SMILES beside them. *: point of attachment. X1 = CC[C@H](C)CCCCC(=O)*; dDab = NCC[C@@H](N)C(=O)O; Dab = NCC[C@H](N)C(=O)O

How the values were obtained:
[1] = tested on: Staphylococcus aureus; assay: Antimicrobial activity against methicillin-resistant Staphylococcus aureus clinical isolate 4 assessed as inhibition of visible bacterial growth incubated for 18 hrs by CLSI based analysis; type: functional
[2] = tested on: Enterococcus faecalis; assay: Antimicrobial activity against Enterococcus faecalis ATCC 19433 assessed as inhibition of visible bacterial growth incubated for 18 hrs by CLSI based analysis; type: functional
[3] = tested on: Staphylococcus aureus; assay: Antimicrobial activity against methicillin-resistant Staphylococcus aureus clinical isolate 3 assessed as inhibition of visible bacterial growth incubated for 18 hrs by CLSI based analysis; type: functional
[4] = tested on: Staphylococcus aureus; assay: Antimicrobial activity against methicillin-resistant Staphylococcus aureus ATCC 43300 assessed as inhibition of visible bacterial growth incubated for 18 hrs by CLSI based analysis; type: functional
[5] = tested on: Staphylococcus epidermidis; assay: Antimicrobial activity against Staphylococcus epidermidis ATCC 12228 assessed as inhibition of visible bacterial growth incubated for 18 hrs by CLSI based analysis; type: functional
[6] = tested on: Bacillus subtilis; assay: Antimicrobial activity against Bacillus subtilis ATCC 23875 assessed as inhibition of visible bacterial growth incubated for 18 hrs by CLSI based analysis; type: functional
[7] = tested on: Enterococcus faecium; assay: Antimicrobial activity against vancomycin-resistant Enterococcus faecium assessed as inhibition of visible bacterial growth incubated for 18 hrs by CLSI based analysis; type: functional
[8] = tested on: Enterococcus gallinarum; assay: Antimicrobial activity against Enterococcus gallinarum ATCC 49573 assessed as inhibition of visible bacterial growth incubated for 18 hrs by CLSI based analysis; type: functional
[9] = tested on: Staphylococcus aureus; assay: Antimicrobial activity against Staphylococcus aureus ATCC 25923 assessed as inhibition of visible bacterial growth incubated for 18 hrs by CLSI based analysis; type: functional
[10] = tested on: Staphylococcus aureus; assay: Antimicrobial activity against methicillin-resistant Staphylococcus aureus clinical isolate 2 assessed as inhibition of visible bacterial growth incubated for 18 hrs by CLSI based analysis; type: functional
[11] = tested on: Staphylococcus aureus; assay: Antibacterial activity against methicillin-resistant Staphylococcus aureus infected in kunming mouse pneumonia model assessed as decrease in IL-6 expression in lung at 5 mg/kg, ip measured upto 8 days; type: functional, organism-based; conditions: time <= 8.0 day
[12] = tested on: Staphylococcus aureus; assay: Antibacterial activity against methicillin-resistant Staphylococcus aureus infected in kunming mouse pneumonia model assessed as decrease in IL-10 expression in lung at 5 mg/kg, ip measured upto 8 days; type: functional, organism-based; conditions: time <= 8.0 day
[13] = tested on: Staphylococcus aureus; assay: Antibacterial activity against methicillin-resistant Staphylococcus aureus infected in kunming mouse pneumonia model assessed as decrease in TNF-alpha expression in lung at 5 mg/kg, ip measured upto 8 days; type: functional, organism-based; conditions: time <= 8.0 day
[14] = tested on: Staphylococcus aureus; assay: Antimicrobial activity against Staphylococcus aureus assessed as reduction in bacterial growth at 2 times MIC incubated for 24 hrs by time-killing assay; type: functional, organism-based
[15] = tested on: Candida albicans; assay: Antifungal activity against Candida albicans assessed as reduction in fungal growth incubated for 18 hrs by CLSI based analysis; type: functional
[16] = tested on: Escherichia coli; assay: Antimicrobial activity against Escherichia coli assessed as inhibition of visible bacterial growth incubated for 18 hrs by CLSI based analysis; type: functional
[17] = tested on: Staphylococcus aureus; assay: Antimicrobial activity against Staphylococcus aureus assessed as inhibition of visible bacterial growth incubated for 18 hrs by CLSI based analysis; type: functional
[18] = Hemolytic activity against mouse Red blood cell incubated for 1 hr; type: toxicity, cell-based; conditions: erythrocyte
[19] = Therapeutic index, ratio of HC5 for hemolytic activity in mouse Red blood cell to MIC for antimicrobial activity against Staphylococcus aureus ATCC 25923 assessed as inhibition of visible bacterial growth; type: toxicity, cell-based, RBC; conditions: red blood cells, read-out: TI
[20] = tested on: Cell membrane; assay: Disruption of cell membrane integrity in Staphylococcus aureus at 4 times of MIC incubated for 1 mins by Propidium iodide staining based analysis; type: subcellular
[21] = tested on: Cell membrane; assay: Disruption of cell membrane integrity in Staphylococcus aureus at 4 times of MIC incubated for 30 mins by Propidium iodide staining based analysis; type: subcellular

Row | Compound | MIC [1] | MIC [2] | MIC [3] | MIC [4] | MIC [5] | MIC [6] | MIC [7] | MIC [8] | MIC [9] | MIC [10] | MIC [15] | MIC [16] | MIC [17] | also measured
1 | CC(C)C[C@H]1NC(=O)[C@H](Cc2c(C(c3ccccc3)c3ccccc3)[nH]c3ccccc23)NC(=O)[C@@H](C(C)C)NC(=O)[C@@H]2CSC(N2)[C@H](C(C)C)NC(=O)[C@@H](C(C)C)NC(=O)[C@H](C(C)C)NC1=O | > 50 µg/mL | > 50 µg/mL | > 50 µg/mL | > 50 µg/mL | > 50 µg/mL | > 50 µg/mL | > 50 µg/mL | > 50 µg/mL | > 50 µg/mL | > 50 µg/mL |  |  |  | 
2 | CC(C)C[C@H]1NC(=O)[C@H](Cc2c[nH]c3ccccc23)NC(=O)[C@@H](C(C)C)NC(=O)[C@@H]2CSC(N2)[C@H](C(C)C)NC(=O)[C@@H](CCCCN)NC(=O)[C@H](C(C)C)NC1=O | > 50 µg/mL | > 50 µg/mL | > 50 µg/mL | > 50 µg/mL | > 50 µg/mL | > 50 µg/mL | > 50 µg/mL | > 50 µg/mL | > 50 µg/mL | > 50 µg/mL |  |  |  | 
3 | CN[C@H](CC(C)C)C(=O)N[C@H]1C(=O)N[C@@H](CC(N)=O)C(=O)N[C@H]2C(=O)N[C@H]3C(=O)N[C@H](C(=O)N[C@H](C(=O)O)c4cc(O)cc(O)c4-c4cc3ccc4O)[C@H](O)c3ccc(c(Cl)c3)Oc3cc2cc(c3O[C@@H]2O[C@H](CO)[C@@H](O)[C@H](O)[C@H]2O[C@H]2C[C@](C)(N)[C@H](O)[C@H](C)O2)Oc2ccc(cc2Cl)[C@H]1O [VANCOMYCIN] | 1.56 µg/mL (≈ 1.08 µM) | 0.39 µg/mL (≈ 0.269 µM) | 0.78 µg/mL (≈ 0.538 µM) | 0.78 µg/mL (≈ 0.538 µM) | 0.39 µg/mL (≈ 0.269 µM) | 0.39 µg/mL (≈ 0.269 µM) | 25 µg/mL (≈ 17.3 µM) | 3.13 µg/mL (≈ 2.16 µM) | 0.78 µg/mL (≈ 0.538 µM) | 3.13 µg/mL (≈ 2.16 µM) |  |  |  | Activity [11]: Active; Activity [12]: Active; Activity [13]: Active; Activity [14]: inactive
4 | C#CC[C@H]1NC(=O)[C@@H]2CSC(N2)[C@H](C(C)C)NC(=O)[C@@H](C(C)C)NC(=O)[C@H](C(C)C)NC(=O)[C@@H](CCCCN)NC(=O)[C@H](Cc2c(C(c3ccccc3)(c3ccccc3)c3ccccc3)[nH]c3ccccc23)NC1=O | 6.25 µg/mL (≈ 6.03 µM) | 25 µg/mL (≈ 24.1 µM) | 12.5 µg/mL (≈ 12.1 µM) | 6.25 µg/mL (≈ 6.03 µM) | 6.25 µg/mL (≈ 6.03 µM) | 6.25 µg/mL (≈ 6.03 µM) | 25 µg/mL (≈ 24.1 µM) | 12.5 µg/mL (≈ 12.1 µM) | 6.25 µg/mL (≈ 6.03 µM) | 6.25 µg/mL (≈ 6.03 µM) | 3.13 µg/mL (≈ 3.02 µM) | 3.13 µg/mL (≈ 3.02 µM) | 3.13 µg/mL (≈ 3.02 µM) | 
5 | CC(C)C[C@H]1NC(=O)[C@H](Cc2c(C(c3ccccc3)(c3ccccc3)c3ccccc3)[nH]c3ccccc23)NC(=O)[C@@H](CCCCN)NC(=O)[C@@H]2CSC(N2)[C@H](C(C)C)NC(=O)[C@@H](C(C)C)NC(=O)[C@H](C(C)C)NC1=O | 12.5 µg/mL (≈ 11.9 µM) | 12.5 µg/mL (≈ 11.9 µM) | 25 µg/mL (≈ 23.7 µM) | 12.5 µg/mL (≈ 11.9 µM) | 12.5 µg/mL (≈ 11.9 µM) | 6.25 µg/mL (≈ 5.93 µM) | 25 µg/mL (≈ 23.7 µM) | 12.5 µg/mL (≈ 11.9 µM) | 6.25 µg/mL (≈ 5.93 µM) | 12.5 µg/mL (≈ 11.9 µM) | 3.13 µg/mL (≈ 2.97 µM) | 3.13 µg/mL (≈ 2.97 µM) | 3.13 µg/mL (≈ 2.97 µM) | HC5 [18]: 46.47 µg/mL; selectivity ratio [19]: 7.44
6 | CC(C)CCCCC(=O)N[C@@H](CCN)C(=O)N[C@H](C(=O)N[C@@H](CCN)C(=O)N[C@H]1CCNC(=O)[C@H]([C@@H](C)O)NC(=O)[C@H](CCN)NC(=O)[C@H](CCN)NC(=O)[C@H](CC(C)C)NC(=O)[C@@H](Cc2ccccc2)NC(=O)[C@@H](CCN)NC1=O)[C@@H](C)O.CC[C@H](C)CCCCC(=O)N[C@@H](CCN)C(=O)N[C@H](C(=O)N[C@@H](CCN)C(=O)N[C@H]1CCNC(=O)[C@H]([C@@H](C)O)NC(=O)[C@H](CCN)NC(=O)[C@H](CCN)NC(=O)[C@H](CC(C)C)NC(=O)[C@@H](Cc2ccccc2)NC(=O)[C@@H](CCN)NC1=O)[C@@H](C)O (X1-[Dab]T[Dab][Dab][dDab][dF]L[Dab][Dab]T; lactam 4-C) |  |  |  |  |  |  |  |  |  |  |  |  |  | Activity [20]: 5.54%; Activity [21]: 38%
